Measured values as given in US12180196B2, “Azetidine-substituted pyridine and pyrazine compounds as inhibitors of cannabinoid receptor 2” (HOFFMANN-LA ROCHE INC., priority 2018, dated 2024).

Biological target: human CB2 (Homo sapiens (Human), UniProt P34972)
Test: Radioligand binding assay, human CB2 (CNR2) membranes, [3H]-CP-55,940
Conditions: HEK cell membranes, [3H]-CP-55,940 radioligand
Description: Radioligand Binding Assay
The affinity of the compounds of the invention for cannabinoid CB1 receptors was determined using recommended amounts of membrane preparations (PerkinElmer) of human embryonic kidney (HEK) cells expressing the human CNR1 or CNR2 receptors in conjunction with 1.5 or 2.6 nM [3H]-CP-55,940 (Perkin Elmer) as radioligand, respectively. Binding was performed in binding buffer (50 mM Tris, 5 mM MgCl2, 2.5 mM EDTA, and 0.5% (wt/vol) fatty acid free BSA, pH 7.4 for CB1 receptor and 50 mM Tris, 5 mM MgCl2, 2.5 mM EGTA, and 0.1% (wt/vol) fatty acid free BSA, pH 7.4 for CB2 receptor) in a total volume of 0.2 ml for 1 h at 30° C. shaking. The reaction was terminated by rapid filtration through microfiltration plates coated with 0.5% polyethylenimine (UniFilter GF/B filter plate; Packard). Bound radioactivity was analyzed for Ki using nonlinear regression analysis (Activity Base, ID Business Solution, Limited), with the Kd values for [3H]CP55,940 determined from saturation experiments. The compounds of formula (I) show an excellent affinity for the CB2 receptor.
The compounds according to formula (I) have an activity in the above assay (Ki) between 0.5 nM and 10 μM. Particular compounds of formula (I) have an activity in the above assay (Ki) between 0.5 nM and 3 μM. Other particular compounds of formula (I) have an activity in the above assay (Ki) between 0.5 nM and 100 nM.

Sequence of human CB2 (P34972 whole entry): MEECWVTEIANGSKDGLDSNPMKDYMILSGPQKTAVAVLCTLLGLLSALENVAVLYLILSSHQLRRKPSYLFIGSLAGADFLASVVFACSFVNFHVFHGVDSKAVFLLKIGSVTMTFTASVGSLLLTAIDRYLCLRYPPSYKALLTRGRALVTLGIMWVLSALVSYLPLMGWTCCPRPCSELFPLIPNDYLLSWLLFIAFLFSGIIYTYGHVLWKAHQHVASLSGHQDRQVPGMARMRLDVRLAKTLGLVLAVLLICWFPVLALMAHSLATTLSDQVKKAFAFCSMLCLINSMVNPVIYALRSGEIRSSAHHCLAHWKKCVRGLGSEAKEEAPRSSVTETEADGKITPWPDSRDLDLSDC

| SMILES | Ki |
| --- | --- |
| CCOC(=O)C(CC)(CC)NC(=O)c1ccc(N2CC(OCCCF)C2)c(OCC2CC2)n1 [Example 1, Ethyl 2-({6-(cyclopropylmethoxy)-5-[3-(3-fluoropropoxy)azetidin-1-yl]pyridine-2-carbonyl}amino)-2-ethylbutanoate] | 19 nM |
| CCOC(=O)C(CC)(CC)NC(=O)c1ccc(N2CC(OCCF)C2)c(OCC2CC2)n1 [Example 2, Ethyl 2-({6-(cyclopropylmethoxy)-5-[3-(2-fluoroethoxy)azetidin-1-yl]pyridine-2-carbonyl}amino)-2-ethylbutanoate] | 5 nM |
| CCOC(=O)C(CC)(CC)NC(=O)c1ccc(N2CC(F)C2)c(OCC2CC2)n1 [Example 4, Ethyl 2-{[6-(cyclopropylmethoxy)-5-(3-fluoroazetidin-1-yl)pyridine-2-carbonyl]amino}-2-ethylbutanoate] | 6 nM |
| NC(=O)CC1(NC(=O)c2ccc(N3CC(OCCF)C3)c(OCC3CC3)n2)COC1 [Example 5, N-[3-(2-Amino-2-oxoethyl)oxetan-3-yl]-6-(cyclopropylmethoxy)-5-[3-(2-fluoroethoxy)azetidin-1-yl]pyridine-2-carboxamide] | 447 nM |
